Test results published in patent US8828992B2, “Substituted azole derivatives, pharmaceutical composition containing the derivatives, and method for treating Parkinson's disease using the same” (priority 2009, dated 2014).
Like-named read-outs stand apart in the source and are kept apart here.

Legend:
[1] = target: T1, Monoamineoxidase B type human-derived enzyme (Homo sapiens, UniProt P27338); experiment: Inhibitory effects on the activity of MAO-B (Amplex Red fluorescence, benzylamine substrate); type: biochemical; details: read-out: Inhibitory effects (%) on the activity of MAO-B
T1 sequence (P27338 1-520): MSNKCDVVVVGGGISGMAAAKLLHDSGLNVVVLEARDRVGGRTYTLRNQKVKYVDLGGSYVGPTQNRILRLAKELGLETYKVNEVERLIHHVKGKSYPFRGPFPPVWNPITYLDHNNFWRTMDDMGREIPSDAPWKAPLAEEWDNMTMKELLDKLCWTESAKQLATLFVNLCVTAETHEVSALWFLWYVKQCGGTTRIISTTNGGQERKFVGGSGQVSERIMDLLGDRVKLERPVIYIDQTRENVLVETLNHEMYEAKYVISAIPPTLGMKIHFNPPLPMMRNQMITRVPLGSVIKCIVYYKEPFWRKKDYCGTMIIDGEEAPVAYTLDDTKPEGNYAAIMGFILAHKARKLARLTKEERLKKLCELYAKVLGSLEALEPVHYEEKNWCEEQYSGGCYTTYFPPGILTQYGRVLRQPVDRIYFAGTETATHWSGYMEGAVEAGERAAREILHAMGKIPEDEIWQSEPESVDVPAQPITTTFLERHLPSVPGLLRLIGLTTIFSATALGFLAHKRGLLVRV
Outline: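 Human MAO-B, diluted 1:200 in 0.05 M sodium phosphate pH 7.4, was pre-incubated with compound for 30 min. It was then mixed 1:1 with working buffer holding 400 μM Amplex Red, 2 U/ml HRP and 2 mM benzylamine (working-buffer levels). Fluorescence (Ex 563/Em 587 nm) was read over 30 min.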

MPTP-induced mouse model = experiment: Tail suspension test in MPTP-induced mouse model of Parkinson's disease; type: in vivo; details: Mus musculus, 168 h; administration concentration 10 (10 mg/kg), oral, 7 days after MPTP; % of control group (Sham); read-out: Mobility (%)
Protocol: (§1) A. MPTP (1-methyl-4-phenyl-1,2,3,6-tetrahydropyridine) and drug treatment MPTP (20 mg/kg, free base; Sigma, St. louis, Mo.) was administered to an 8 week old (20-25 g) male C57BL/6 test mouse intraperitoneally three times a day at the interval of 2 hours to construct a model (Breidert et al., 2002; Lichuan Yang, Shuei Sugama, Jason W. Chirichigno, Jason Gregorio, Stefan Lorenzl, Dong H. Shin, Susan E. Browne, Yoshinori Shimizu, Tong H. Joh, M. Flint Beal, l and David S. Alber. (2003) Minocycline Enhances MPTP Toxicity to Dopaminergic Neurons. J Neurosci Res. 74:278-285). In order to observe the protective effects of the compound as a candidate drug, the compound was dissolved in a solution containing 10% dimethylsulfoxide (DMSO), 10% Cremophor, and 40% polyethyleneglycol (PEG), […] treatment. Rasagiline as a control drug was also dissolved in the same solution, and the resulting solution was administered at the same doses in the same manner as above. A control group (Sham) in which MPTP was not administered was constructed by intraperitoneally administering saline solution to the group instead of MPTP in the same manner as above and orally administering the same solution 1 hour before and after PBS treatment.
A tail suspension test was performed in order to measure the induction degree of behavioral dysfunctions in accordance with administration of MPTP and a drug. At 7 days after administration of the drug, a round stainless steel rod (width: 1 cm) was affixed to a cage (width: 16 cm, height: 40 cm) 35 cm above from the surface shielded by black wooden structures in the left and right sides to perform experiments. The time for which the animal moved for a total period of 6 minutes was measured in seconds to evaluate the drug action.
Mobility refers to an expression of the measurement of the time for which the animal moved with its tail hung high as a percentage compared to the measurement of a control group.

[2] = tested on: dopamine (DA) in the striata of MPTP-treated mice; experiment: Levels of dopamine in the striata of MPTP-treated mice (HPLC); type: in vivo; details: Mus musculus, po, 168 h, 10 mpk, 7 days after MPTP, read-out: Levels of dopamine (DA) in the striata, compared to a control group %
Protocol: as §1
The changes of contents of dopamine and dopamine metabolites in the striatum in accordance with administrations of MPTP and the drug were measured by high performance liquid chromatography (HPLC). At 7 days after administration of the drug, the animal was sacrificed by cervical vertebra dislocation and the brain tissues were immediately isolated from the animal. 0.5 ml of iced solution for HPLC analysis (0.1 M perchloric acid and 0.1 mM EDTA) was added to a striatum obtained from the isolated brain tissues, and an ultrasonic grinder was used to prepare a tissue homogenate. The tissue homogenate was centrifuged at 12,000 rpm for 15 minutes, and its supernatant was filtered through nitrocellulose membrane filter (0.2 um, Millipore). For HPLC analysis, uBondapak™ C18 column (4.6×150 mm, particle size 10 μm: Shisheido, Japan) was used, the flow rate of the mobile phase (0.07 M monobasic sodium phosphate), 1 mM sodium octasulfonic acid, 0.1 uM EDTA, 5% acetonitrile, pH 3.2) was maintained at 0.7 ml/min, and the electrode potential of the electrochemical detector (ICA-5000, Japan) was set at 700 mV.

[3] = tested on: dopamine (DA) in the striatum of a MPTP-treated mouse; experiment: Combined administration with Levodopa group: dopamine in the striatum of MPTP-treated mouse (HPLC); type: in vivo; details: compound 1 mg/kg PO co-administered with Levodopa group (Levodopa 50 mg/kg + Benzerazide 25 mg/kg IP); for Concentration of dopamine compared to a control group %, 1 hr: 1 hr after Levodopa; for Concentration of dopamine compared to a control group %, 3 hr: 3 hr after Levodopa
Protocol: MPTP (20 mg/kg, free base; Sigma, St. louis, Mo.) was administered to an 8 week old (20-25 g) male C57BL/6 test mouse intraperitoneally at the interval of 2 hours to construct a model.
In order to observe the effects of combined administration of a compound of the present invention and Levodopa, the compound of the present invention was dissolved in a solution containing 0.02 ml of dimethylsulfoxide (DMSO), 0.02 ml of Cremophor, 0.08 ml of polyethyleneglycol (PEG), and 0.08 ml of physiological saline. The resulting solution was orally administered at doses of 1 mg/kg one week after the MPTP treatment, and a Levodopa group containing Levodopa at 50 mg/kg and Benzerazide at 25 mg/kg was intraperitoneally administered 1 hour later.
A single administration of the Levodopa group in the following Table 4 indicates values resulting from a MPTP (toxin) treatment followed by an administration of the Levodopa group compared to the treatment results of a Levodopa single administration group of Levodopa and Benzerazide.
At 1 hour and 3 hours after administration of Levodopa, the animals were sacrificed by cervical vertebra dislocation and the brain tissues were immediately isolated from the animals. 0.5 me of iced solution for HPLC analysis (0.1 M perchloric acid and 0.1 mM EDTA) was added to a striatum obtained from the isolated brain tissues, and an ultrasonic grinder was used to prepare a tissue homogenate. The tissue homogenate was centrifuged at 12,000 rpm for 15 minutes, and its supernatant was filtered through nitrocellulose membrane filter (0.2 um, Millipore). For HPLC analysis, uBondapak™ C18 column (4.6×150 mm, particle size 10 μm: Shisheido, Japan) was used, the flow rate of the mobile phase (0.07 M monobasic sodium phosphate, 1 mM sodium octasulfonic acid, 0.1 uM EDTA, 5% acetonitrile, pH 3.2) was maintained at 0.5 me/min, and the electrode potential of the electrochemical detector (CouloChem III, ESA, Japan) was set at 350 mV.

Structure (SMILES)	inhibition at 0.01 µM [1]	response vs control in vivo at 10 mg/kg (MPTP-induced mouse model)	response vs control in vivo at 10 mg/kg [2]	inhibition at 0.01 µM ([1]; treatment concentration 10 nM)	Concentration of dopamine compared to a control group %, 1 hr [3]	Concentration of dopamine compared to a control group %, 3 hr [3]
NC(=O)OCc1cc(-c2ccc(OCc3ccncc3)cc2)no1 [Example 67, Carbamic acid 3-[4-(pyridin-4-ylmethoxy)-phenyl]-isoxazol-5-ylmethyl ester]	94.2%	88.9%	80.7%	–	–	–
NC(=O)OCc1cc(-c2ccc(OCc3ccccc3)c(Br)c2)no1 [Example 6, carbamic acid 3-(4-benzyloxy-3-bromo-phenyl)-isoxazol-5-ylmethyl ester]	–	82.9%	112%	90.7%	220.87%	59.8%
NC(=O)OCc1cc(-c2ccc(OCc3ccc(Cl)s3)cc2)no1 [Example 62, Carbamic acid 3-[4-(5-chloro-thiophen-2-ylmethoxy)-phenyl]-isoxazol-5-ylmethyl ester]	98.6%	97.3%	99.1%	–	204.8%	65.4%
NC(=O)OCc1cc(-c2ccc(OCn3nnc4ccccc43)cc2)no1 [Example 71, Carbamic acid 3-[4-(benzotriazol-1-ylmethoxy)-phenyl]-isoxazol-5-ylmethyl ester]	–	–	41.1%	56%	–	–
NC(=O)OCc1cc(-c2ccc(OCc3cccc(F)c3)cc2)no1 [Example 12, carbamic acid 3-[4-(3-fluoro-benzyloxy)-phenyl]-isoxazol-5-ylmethyl ester]	–	85.3%	78.8%	94.1%	–	–
NC(=O)OCc1cc(-c2ccc(OCc3ccc(C=NO)cc3)cc2)no1 [Example 37, carbamic acid 3-{4-[4-(hydroxyimino-methyl)-benzyloxy]-phenyl}-isoxazol-5-ylmethyl ester]	–	77.5%	79.2%	92.3%	–	–
NC(=O)OCc1cc(-c2ccc(OCc3ccccc3)cc2)no1 [Example 1, carbamic acid 3-(4-benzyloxy-phenyl)-isoxazole-5-ylmethyl ester]	96.6%	113%	112%	–	129.5%	90.8%
NC(=O)OCc1cc(-c2ccc(OCc3cccc(C=NO)c3)cc2)no1 [Example 38, carbamic acid 3-{4-[3-(hydroxyimino-methyl)-benzyloxy]-phenyl}-isoxazol-5-ylmethyl ester]	–	73%	52.9%	91.7%	–	–
CCCCCCOc1ccc(-c2cc(COC(N)=O)on2)cc1 [Example 45, carbamic acid 3-(4-hexyloxy-phenyl)-isoxazol-5-ylmethyl ester]	87.6%	114%	41.1%	–	–	–
CNC(=O)OCc1cc(-c2ccc(OCc3ccccc3)cc2)no1 [Example 121, methyl-carbamic acid 3-(4-benzyloxy-phenyl)-isoxazol-5-ylmethyl ester]	–	91.2%	97.9%	82.8%	144.6%	89.2%
NC(=O)OCc1cc(-c2ccc(OCc3c(Cl)cncc3Cl)cc2)no1 [Example 69, Carbamic acid 3-[4-(3,5-dichloro-pyridin-4-ylmethoxy)-phenyl]-isoxazol-5-ylmethyl ester]	–	97.4%	100%	83.6%	205.2%	200.4%
Fc1cccc(F)c1COc1ccc(-c2cc(Cn3ccnc3)on2)cc1 [Example 143, 3-[4-(2,6-difluoro-benzyloxy)-phenyl]-5-imidazol-1-ylmethyl-isoxazole]	–	98.9%	46.1%	98.1%	–	–
NC(=O)OCc1cc(-c2ccc(OCc3ccccn3)cc2)no1 [Example 65, Carbamic acid 3-[4-(pyridin-2-ylmethoxy)-phenyl]-isoxazol-5-ylmethyl ester]	89.9%	94.1%	74.9%	–	–	–
Cc1cn(Cc2cc(-c3ccc(OCc4ccccc4)cc3)no2)cn1 [Example 141, 3-(4-benzyloxy-phenyl)-5-(4-methyl-imidazol-1-ylmethyl)-isoxazole]	–	94.6%	51.2%	92.2%	–	–
